Experimental data published in patent publication US4956344A, “Method for treatment of lesions in the large intestinal epithelium with a tripeptide” (Hafslund Nycomed A/S, priority 1989, dated 1990).
Where “and” joins values, the source holds several entries; their conditions need not be identical. Equal values may be shown once. Square brackets hold non-standard residues; d marks the D form. Peptide text beside a SMILES is read from it. pGlu = O=C1CC[C@@H](C(=O)O)N1

What was measured:
[1] = tested on: large intestinal epithelium; assay: Mitotic rate (Colcemid-arrested metaphases) in the large intestinal epithelium after i.p. injection; format: in vivo, hairless mice; parameters: mitotic rate in the large intestinal epithelium, Treated group Mean / Mitotic rate, Treated: unit not given here; details: for cell proliferation in the large intestinal epithelium (mitotic rate), Treated: mean
Description: (§1) All in vivo experiments were performed with hairless mice at 0800-0900 AM. The fractions were suspended in distilled water, slightly acidified (pH=6) and injected i.p. at different doses dependent on the purity of the fraction. The controls received solvent only. The pattern of cell proliferation after injecting the peptide was examined by varying the time between treatment and sacrifice.
Two hours before sacrifice (except for the experiments testing tissue specificity in the kidney) all animals received Colcemid 0.15 mg per animal i.p. ^3 HTdR (tritiated thymidine) was injected 30 minutes before sacrifice (30 μCi per animal i.p.). […]
Mitotic rate: After routine dehydration and paraffin embedding, sections were cut at 5 μm and stained with haematoxylin. Colcemid-arrested mitoses per 500 crypt cells were determined in ten longitudinally cut crypts in ileum and colon. Only crypts that were cut strictly longitudinally were accepted, viz., only those where the lumen of the crypt could be followed from the bottom of the gland to the lumen of the gut. No telophases were seen. The number of accumulated metaphases in epidermis Was determined by counting 25 vision fields of interfollicular epidermis (eyepiece 12.5, objective 40) and expressed as mitoses per vision field per 2h.

[2] = tested on: large intestinal epithelium; assay: Labelling index (3HTdR-labelled crypt cells) in the large intestinal epithelium after i.p. injection; format: in vivo, hairless mice; parameters: key to Labelling index, Treated: fraction of labelled cells per 500 crypt cells; details: for Labelling index, Treated: 10^-12 mole per animal
Description: as §1
(§2) Two hours before sacrifice (except for the experiments testing tissue specificity in the kidney) all animals received Colcemid 0.15 mg per animal i.p. ^3 HTdR (tritiated thymidine) was injected 30 minutes before sacrifice (30 μCi per animal i.p.).
Labelling index: Paraffin sections, cut at 5 μm, were dipped in Kodak-NTB emulsion and exposed for 3 weeks at 0°-4° C., developed, and stained with haematoxylin The number of labelled cells were counted per 500 crypt cells in longitudinally cut crypts as described above. Similarly, the number of labelled cells in 40 vision fields of interfollicular epidermis (eyepiece 12.5, objective 40) was determined. A cell was considered labelled when the number of grains was five or more.

[3] = tested on: colon carcinoma cell line HT 29; assay: Proliferation of HT 29 cells, incorporation of tritiated thymidine; format: cell-based; details: for incorporation of 3HTdR, Treated (Mean): 1 % fetal calf serum, 6 hour-period
Description: Cell culture: HT 29 cells, 20000 cells per well in 96-well tissue culture clusters. Medium: RPMI 1640, 1 % fetal calf serum Concentration of the tripeptide 10^-8 M, lyophilized peptide dissolved in medium.
Assay for proliferation: Incorporation of tritiated thymidine (^3 HTdR) 6 hour-period, ^3 HTdR 1 uCi per well.
The tripeptide was added to the culture on the third day (exponential growth), and the incorporation of tritiated thymidine was measured for 6 hour-periods at 16h, 24h, and 40h after the peptide was added to the wells.

small intestine = assay: Tissue specificity: mitotic rate in small intestine (ileum); format: in vivo, hairless mice; details: time and dose levels tested
Description: (§3) To test for possible tissue specificity of the tripeptide the back skin and a defined part of ileum of eight animals were fixed immediately after killing. The mitotic rate (see below) in sections from these tissues was compared with the corresponding values in solvent-treated animals. Unilateral nephrectomy (uNX) was performed in four animals, and the animals were treated with the tripeptide at 18h after surgery. Controls underwent uNX and received solvent only. These animals received Colcemid 3h before sacrifice at 42h. The mitotic rate (number of accumulated metaphases per 1000 cells per 3h) was registered in the outer part of the kidney cortex.
as §2
(§4) Mitotic rate: After routine dehydration and paraffin embedding, sections were cut at 5 μm and stained with haematoxylin. Colcemid-arrested mitoses per 500 crypt cells were determined in ten longitudinally cut crypts in ileum and colon. Only crypts that were cut strictly longitudinally were accepted, viz., only those where the lumen of the crypt could be followed from the bottom of the gland to the lumen of the gut.

epidermis = assay: Tissue specificity: mitotic rate in epidermis (back skin); format: in vivo, hairless mice; details: time and dose levels tested
Description: as §3, §2, §4

[4] = tested on: kidney tubular epithelium; assay: Tissue specificity: mitotic rate in kidney cortex after unilateral nephrectomy; format: in vivo, hairless mice; details: proliferation induced by contralateral nephrectomy; treated 18h after surgery, sacrifice at 42h
Description: as §3

Compound: O=C(O)CC[C@H](NC(=O)[C@@H]1CCC(=O)N1)C(=O)N[C@@H](CC(=O)O)C(=O)N[C@@H](CO)C(=O)NCC(=O)O [pGlu-Glu-Asp-Ser-Gly (OH), reference compound] ([pGlu]EDSG-OH)
- cell proliferation in the large intestinal epithelium ([1]; 10^-12 mole per animal, doses and times tested): unchanged

Compound: O=C(O)CNC(=O)[C@H](Cc1c[nH]cn1)NC(=O)[C@@H]1CCC(=O)N1 [pGlu-His-Gly(OH), L-pyroglutamyl-L-histidyl-glycine] ([pGlu]-His-Gly-OH)
- reduced LI, significance ([2]; 15 and 18 h after treatment): not statistically significant
- Labelling index, Treated ([2]; 2 h after single i.p. injection): 0.086
- labelling index (LI) ([2]; 4h after injection): pronounced reduction
- Labelling index, Treated ([2]; 4 h after single i.p. injection): 0.067
- Labelling index, Treated ([2]; 6 h after single i.p. injection): 0.067
- Labelling index, Treated ([2]; 8 h after single i.p. injection): 0.058
- Labelling index, Treated ([2]; 12 h after single i.p. injection): 0.048
- Labelling index, Treated ([2]; 15 h after single i.p. injection): 0.068
- Labelling index, Treated ([2]; 18 h after single i.p. injection): 0.11
- Labelling index, Treated ([2]; 24 h after single i.p. injection): 0.098
- number of labelled cells, second period ([2]; approximately 8h after the first decrease): second inhibition of the same degree
- incorporation of 3HTdR, Treated (Mean) ([3]; 10^-8 M, 16 h after addition of peptide): 12177
- incorporation of 3HTdR, Treated (Mean) ([3]; 10^-8 M, 24 h after addition of peptide): 9080
- incorporation of 3HTdR, Treated (Mean) ([3]; 10^-8 M, 40 h after addition of peptide): 12485
- incorporation of 3HTdR ([3]; 10^-8 M, 24-30h after the treatment, 1 % serum): significant reduction
- inhibition of 3HTdR incorporation ([3]; 10^-10 M): less, but still significant inhibition
- growth of HT 29 cells with increased serum ([3]; serum addition increased to 10 &): varied between significant inhibition of growth and no effect
- number of accumulated metaphases ([1]; 2-4h after injection, 10^-12 mole per animal i.p.): significantly reduced
- cell proliferation in the large intestinal epithelium (mitotic rate), Treated ([1]; 10^-6 mole per animal i.p.): 0.047
- cell proliferation in the large intestinal epithelium (mitotic rate), Treated ([1]; 10^-9 mole per animal i.p.): 0.044
- inhibition of mitotic rate in the large intestinal epithelium ([1]; 10^-11 mole per animal): smaller, but significant inhibition
- cell proliferation in the large intestinal epithelium (mitotic rate), Treated ([1]; 10^-11 mole per animal i.p., p<0.05): 0.021
- reduction of the number of accumulated metaphases ([1]; 10^-12 mole per animal): more than 50%
- cell proliferation in the large intestinal epithelium (mitotic rate), Treated ([1]; 10^-12 mole per animal i.p., p<0.05): 0.018
- mitotic rate in the large intestinal epithelium, Treated group Mean ([1]; 10^-12 mole per animal, synthetic peptide, seven identical experiments in mice, one line each, p<0.05): 0.018 and 0.021 and 0.026 and 0.043 and 0.025
- cell proliferation in the large intestinal epithelium (mitotic rate), Treated ([1]; 10^-15 mole per animal i.p.): 0.042
- cell proliferation in the large intestinal epithelium (mitotic rate), Treated ([1]; 10^-18 mole per animal i.p.): 0.035
- Mitotic rate, Treated ([1]; 2 h after single i.p. injection, 10^-12 mole per animal): 0.021
- Mitotic rate, Treated ([1]; 4 h after single i.p. injection, 10^-12 mole per animal): 0.018
- Mitotic rate, Treated ([1]; 6 h after single i.p. injection, 10^-12 mole per animal): 0.027
- Mitotic rate, Treated ([1]; 8 h after single i.p. injection, 10^-12 mole per animal): 0.031
- Mitotic rate, Treated ([1]; 12 h after single i.p. injection, 10^-12 mole per animal): 0.019
- Mitotic rate, Treated ([1]; 15 h after single i.p. injection, 10^-12 mole per animal): 0.010
- Mitotic rate, Treated ([1]; 18 h after single i.p. injection, 10^-12 mole per animal): 0.027
- Mitotic rate, Treated ([1]; 24 h after single i.p. injection, 10^-12 mole per animal): 0.057
- mitotic rate, second effect ([1]; approximately 15h after injection, less pronounced than the first, 10^-12 mole per animal): new Wave of inhibition
- decrease in cell proliferation in the large intestinal epithelium ([1]; doses higher than 10^-11 or lower than 10^-12 mole per animal): no significant decrease
- mitotic count in the treated group ([1]; thereafter, for a period of 6-8h, not formally significant, 10^-12 mole per animal): exceeded the control level
- inhibitory effect on cell proliferation in the small intestine (small intestine): No inhibitory effect
- inhibitory effect on cell proliferation in epidermis (epidermis): No inhibitory effect
- inhibitory effect on cell proliferation in kidney tubular epithelium [4]: No inhibitory effect
